Experimental data published in the NIST ThermoML archive (doi:10.1021/je060054+).
Numbers after ± are expanded uncertainties.

Test: refractive index (Na D-line) (dimensionless)
Details: 298.15 K; 101.33 kPa; Liquid; Standard Abbe refractometry

First: O [water]
Second: CCCCCO [pentan-1-ol]
The refractive index of the first is lower: 1.3325 ± 0.00072 for the first, 1.4077 ± 0.00073 for the second.

Going from CCO [ethanol] to CCOC(C)=O [ethyl acetate], the refractive index rises from 1.35941 ± 0.00073 to 1.36978 ± 0.00072.
